Each structure is given as a SMILES string. Like-named read-outs stand apart in the source and are kept apart here.

Series [1] addresses T1, factor VIIa (Homo sapiens, UniProt P08709).
T1 construct: proteolytic cleavage of factor X to factor Xa, factor IX to factor IXa and additional factor VII to factor VIIa
Nature of the series: Factor VIIa substrate hydrolysis (amidolytic activity) in factor X deficient plasma. It is filed as biochemical. Particulars: 1 μM inhibitor, 85% factor X deficient plasma, 0.5 nM factor VIIa, D-Ile-Pro-Arg-AFC, FIG. 2. As to the method: The assay was carried out in a fluorescence plate reader at room temperature. factor VIIa substrate hydrolysis (amidolytic activity on the substrate) was monitored for 30 minutes at an excitation wavelength of 400 nm and an emission wavelength of 535 nm. […] Such interference is primarily due to hydrolysis of the relatively nonspecific peptide substrate by downstream proteases such as factor Xa and thrombin.

Series [2] is described as follows: Binding of factor VIIa inhibitor to plasma proteins (shift in IC50, buffer vs plasma). Particulars: pH 7.5, probe D-Ile-Pro-Arg-AFC (fluorogenic factor VIIa substrate); factor X deficient human plasma; 1-IC50 in buffer/IC50 in plasma; read-out: Protein binding (converted). It is filed as in vitro ADME. From the text:
Some embodiments of the present invention provide methods for determining the plasma protein binding affinity of a factor VIIa inhibitor for other plasma proteins. Factor VIIa inhibitors having low plasma protein binding affinity for plasma proteins other than factor VIIa are preferred because more unbound factor VIIa inhibitor is available to bind and inhibit factor VIIa. The term “low protein binding factor VIIa inhibitor” as used herein means, a factor VIIa inhibitor that decreases the activity of factor VIIa in the presence or absence of other plasma proteins. […] The fraction of inhibitor bound to plasma protein is calculated by 1-IC50 in buffer/IC50 in plasma.
Protein binding of the inhibitor 2-(1-aminoisoquinolin-6-ylamino)-2-(3-ethoxy-4-isopropoxyphenyl)-N-(4-hydroxyphenylsulfonyl)acetamide was determined by measuring factor VIIa inhibition by the test inhibitor in buffer and then in factor X deficient human plasma. […] The assay was carried out in a fluorescence plate reader at room temperature at an excitation wavelength of 400 nm and an emission wavelength of 535 nm. The fraction of the inhibitor bound to plasma protein was calculated according to the following formula: 1-IC50 in buffer/IC50 in plasma. […] Protein binding of 2-(1-aminoisoquinolin-6-ylamino)-2-(3-ethoxy-4-isopropoxyphenyl)-N-(4-hydroxyphenylsulfonyl)acetamide was determined to be 99.2%.

In series [3] the target is T1, factor VIIa. The series is described as follows: Factor VIIa inhibition in buffer and in factor X deficient human plasma. As to conditions: 2.5 nM factor VIIa, FIG. 5. The class given is biochemical. As to the method:
Protein binding of the inhibitor 2-(1-aminoisoquinolin-6-ylamino)-2-(3-ethoxy-4-isopropoxyphenyl)-N-(4-hydroxyphenylsulfonyl)acetamide was determined by measuring factor VIIa inhibition by the test inhibitor in buffer and then in factor X deficient human plasma. […] In FIG. 5, one set of samples contained 2.5 nM factor VIIa, 28 nM soluble tissue factor, 10 mM CaCl2 100 nM D-Ile-Pro-Arg-AFC and varying concentrations of factor VIIa inhibitor 2-(1-aminoisoquinolin-6-ylamino)-2-(3-ethoxy-4-isopropoxyphenyl)-N-(4-hydroxyphenylsulfonyl)acetamide (Compound B). The second sample set was identical to the first set with the addition of 90% factor X deficient plasma. All samples were diluted in 50 mM HEPES pH 7.5, 150 mM NaCl, 0.1% polyethyleneglycol 8000 and 0.1% bovine serum albumin. The assay was carried out in a fluorescence plate reader at room temperature at an excitation wavelength of 400 nm and an emission wavelength of 535 nm. The fraction of the inhibitor bound to plasma protein was calculated according to the following formula: 1-IC50 in buffer/IC50 in plasma. […] Protein binding of 2-(1-aminoisoquinolin-6-ylamino)-2-(3-ethoxy-4-isopropoxyphenyl)-N-(4-hydroxyphenylsulfonyl)acetamide was determined to be 99.2%.

Series [4] in a line: Factor VIIa inhibitor concentration in plasma samples from dosed rabbits (functional assay). It is filed as in vivo. Particulars: sample B6, plasma from dosed rabbit; IC50 of standard curve × plasma dilution factor giving 50% inhibition. As to the method: Plasma was prepared from tested blood samples drawn from rabbits dosed with (R)-N-(5-acetamido-2-(ethylsulfonyl)benzyl)-2-(1-aminoisoquinolin-6-ylamino)-2-(3,4-dimethoxyphenyl)acetamide (Compound C) into buffered citrate. The samples were diluted and combined with tissue factor, factor VIIa, Ca^++, factor Xa inhibitor 2-(3-Aminomethyl-phenyl)-5-trifluoromethyl-2H-pyrazole-3-carboxylic acid (3-fluoro-2′-methanesulfonyl-biphenyl-4-yl)-amide and fluorogenic factor VIIa substrate D-Ile-Pro-Arg-AFC. The inhibitory activity of the tested sample was measured by monitoring the fluorescence of the D-Ile-Pro-Arg-AFC product and comparing the activity to standard curve constructed with plasma from an undosed rabbit spiked with known concentrations of the (R)-N-(5-acetamido-2-(ethylsulfonyl)benzyl)-2-(1-aminoisoquinolin-6-ylamino)-2-(3,4-dimethoxyphenyl)acetamide. […] The assay was carried out in a fluorescent plate reader at room temperature at an excitation wavelength of 400 nm and an emission wavelength of 535 nm. […] IC50 of the standard curve was calculated using floating top and bottom to account for the background signal not originating from factor VIIa activity. […] The concentration of (R)-N-(5-acetamido-2-(ethylsulfonyl)benzyl)-2-(1-aminoisoquinolin-6-ylamino)-2-(3,4-dimethoxyphenyl)acetamide present in sample B6 was calculated to be 338.5 nM. […]

T1 sequence (P08709 61-212 limits assumed): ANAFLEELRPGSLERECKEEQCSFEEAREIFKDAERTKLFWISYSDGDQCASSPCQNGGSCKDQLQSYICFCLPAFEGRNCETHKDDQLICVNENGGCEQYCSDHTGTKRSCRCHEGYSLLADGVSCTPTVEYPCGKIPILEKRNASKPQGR
T1 sequence (P08709 213-466 limits assumed): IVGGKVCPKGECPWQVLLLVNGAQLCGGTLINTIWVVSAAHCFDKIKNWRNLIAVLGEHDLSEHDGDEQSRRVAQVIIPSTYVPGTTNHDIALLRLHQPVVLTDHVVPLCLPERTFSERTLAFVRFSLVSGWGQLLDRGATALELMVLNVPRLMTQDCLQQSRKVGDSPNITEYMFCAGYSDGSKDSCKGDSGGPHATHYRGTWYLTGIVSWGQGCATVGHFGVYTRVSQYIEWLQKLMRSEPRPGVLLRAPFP
T1 sequence (P13726 with tags, fused parts or gaps partner limits assumed): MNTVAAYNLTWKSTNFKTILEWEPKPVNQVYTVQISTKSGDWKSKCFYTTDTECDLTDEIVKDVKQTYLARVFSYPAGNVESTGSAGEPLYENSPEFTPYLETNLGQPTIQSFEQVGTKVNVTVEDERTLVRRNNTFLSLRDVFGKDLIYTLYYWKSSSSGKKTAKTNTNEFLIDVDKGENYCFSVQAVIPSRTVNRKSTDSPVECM

With `COc1cc([C@@H]2Nc3ccc(C(=N)N)cc3[C@H]3c4ccccc4C[C@H]32)c(-c2ccc(C(=O)O)cc2)cc1O` [2′-((6R,6aR,11bR)-2-carbamimidoyl-6,6a,7,11b-tetrahydro-5H-indeno[2,1-c]quinolin-6-yl)-5′-hydroxy-4′-methoxybiphenyl-4-carboxylic acid], at factor VIIa [1], the “inhibition of amidolytic activity in factor X deficient plasma” value is given as “most of it is inhibited”. For the compound `CCOc1cc(C(Nc2ccc3c(N)nccc3c2)C(=O)NS(=O)(=O)c2ccc(O)cc2)ccc1OC(C)C` (centres unmarked) [Compound B, 2-(1-aminoisoquinolin-6-ylamino)-2-(3-ethoxy-4-isopropoxyphenyl)-N-(4-hydroxyphenylsulfonyl)acetamide], the fraction unbound in series [2] was 0.008. Further, the half-inhibitory concentration (IC50) – broadly, the concentration needed to halve the response being measured – was found to be 3.3 µM at factor VIIa [3] (90% factor X deficient plasma, read-out: IC50 in plasma) and 0.026 µM at factor VIIa [3] (buffer without plasma, read-out: IC50 in buffer). For `CCS(=O)(=O)c1ccc(NC(C)=O)cc1CNC(=O)[C@H](Nc1ccc2c(N)nccc2c1)c1ccc(OC)c(OC)c1` [Compound C, (R)-N-(5-acetamido-2-(ethylsulfonyl)benzyl)-2-(1-aminoisoquinolin-6-ylamino)-2-(3,4-dimethoxyphenyl)acetamide], the “concentration present in plasma sample” value in series [4] turned out to be 338.5 nM.

These data come from patent US20080026447A1, “Assay for determining factor viia inhibitor concentration in plasma samples” (Bristol-Myers Squibb Company, priority 2006, published 2008).
